Where two headings read alike, the source gives them in different places. Where a SMILES comes first, the peptide text is derived from it. [ ]: non-standard residue; d: D form.
Columns and labels:
MDRAB 12036 = type: cell-based, Acinetobacter baumannii
Summary of the method: (§1)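 Peptides were serially diluted twofold in Mueller-Hinton medium and combined 1:1 with bacterial suspensions prepared at 2×10^6 CFU. Readout was the minimal inhibitory concentration, i.e. the lowest concentration with no growth.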

MDRPA 2003 = type: cell-based, Pseudomonas aeruginosa
Summary of the method: as §1

A. baumannii [1] = assay: MIC of antibiotic during combined treatment with antimicrobial peptide; type: cell-based, Acinetobacter baumannii; conditions: A. baumannii
Summary of the method: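 Using MH broth, we determined combination MICs by titrating the antibiotic into wells and then repeating under the reverse dilution scheme.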

S. epidermidis = assay: microbe, parasite or virus in culture; type: cell-based, Staphylococcus epidermidis
Summary of the method: as §1

P. aeruginosa = assay: microbe, parasite or virus in culture; type: cell-based, Pseudomonas aeruginosa
Summary of the method: as §1

MDREC 1229 [2] = type: cell-based, Escherichia coli
Summary of the method: (§2)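 Broth microdilution in MH medium; strains were diluted to 2×10^6 CFU per ml before plating. Peptide was serially diluted stepwise at 2:1 starting from its MIC, and MH-diluted antibiotic was then added to determine MIC. The reversed arrangement was also tested.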

E. coli = type: cell-based, Escherichia coli; conditions: E. coli
Summary of the method: as §2

MDREC 1238 = type: cell-based, Escherichia coli
Summary of the method: as §1

MDREC 1229 [3] = assay: MIC of antibiotic during combined treatment with antimicrobial peptide; type: cell-based, Escherichia coli
Summary of the method: as §2

MDRAB 12035 [4] = assay: MIC of antimicrobial peptide during combined treatment with antibiotic; type: cell-based, Acinetobacter baumannii
Summary of the method: as §2

A. baumannii [5] = assay: as above; type: cell-based, Acinetobacter baumannii
Summary of the method: as §2

MDRAB 12035 [6] = assay: MIC of antibiotic during combined treatment with antimicrobial peptide; type: cell-based, Acinetobacter baumannii
Summary of the method: as §2

MDRST 8009 = type: cell-based, Salmonella typhimurium; conditions: agent alone
Summary of the method: as §1

[7] = combined with peptide at 1 μg/ml
[8] = combined with peptide at 2 μg/ml
[9] = combined with peptide at 4 μg/ml
[10] = combined with peptide at 6 μg/ml
[11] = combined with peptide at 8 μg/ml
[12] = combined with peptide at 16 μg/ml
[13] = combined with peptide at 32 μg/ml
[14] = combined with peptide at 64 μg/ml
[15] = linezolid 64 μg/ml (Conc./MIC 1/8)
[16] = linezolid 512 μg/ml (Conc./MIC 1)
[17] = vancomycin 512 μg/ml (Conc./MIC 1/2)
[18] = vancomycin 1024 μg/ml (Conc./MIC 1)
[19] = peptide treatment concentration 1 μg/ml
[20] = peptide treatment concentration 2 μg/ml
[21] = peptide treatment concentration 4 μg/ml
[22] = peptide treatment concentration 6 μg/ml
[23] = peptide treatment concentration 8 μg/ml
[24] = peptide treatment concentration 16 μg/ml
[25] = peptide treatment concentration 32 μg/ml
[26] = peptide treatment concentration 64 μg/ml
[27] = erythromycin 4 μg/ml (Conc./MIC 1/8)
[28] = erythromycin 8 μg/ml (Conc./MIC 1/4)
[29] = erythromycin 16 μg/ml (Conc./MIC 1/2)
[30] = erythromycin 32 μg/ml (Conc./MIC 1)

CC[C@H](C)[C@H](NC(=O)[C@H](CCCCN)NC(=O)[C@H](Cc1c[nH]c2ccccc12)NC(=O)[C@@H](N)CCCNC(=N)N)C(=O)N[C@@H](Cc1ccccc1)C(=O)N[C@@H](CCCCN)C(=O)N[C@@H](CCCCN)C(=O)N[C@H](C(=O)N[C@H](CCCCN)C(=O)N[C@@H](CCCCN)C(=O)N[C@@H](CC(C)C)C(=O)N[C@@H](CC(C)C)C(=O)N[C@@H](Cc1c[nH]cn1)C(=O)N[C@@H](CO)C(=O)N[C@@H](Cc1ccccc1)C(=O)N[C@@H](CCCCN)C(=O)N[C@@H](CCCCN)C(=O)N[C@@H](Cc1ccccc1)C(N)=O)[C@@H](C)CC [PapMA-15, RWK IFK KIk KLL HSF KKF-NH2] (H-RWKIFKKI[dK]KLLHSFKKF-NH2; N-terminus assumed)
2 µg/mL: Antibiotic MIC, Erythromycin (A. baumannii [1]; [10]) | Antibiotic MIC, Linezolid (A. baumannii [1]; [12]) | Peptide MIC during treatment with antibiotic (MDREC 1229 [2]; erythromycin 32 μg/ml (Conc./MIC 1/8)) | Peptide MIC during treatment with antibiotic (MDREC 1229 [2]; erythromycin 64 μg/ml (Conc./MIC 1/4)) | Peptide MIC during treatment with antibiotic (MDREC 1229 [2]; erythromycin […] (Conc./MIC 1/2)) | Peptide MIC during treatment with antibiotic (MDREC 1229 [2]; linezolid […] (Conc./MIC 1/4)) | Peptide MIC during treatment with antibiotic (MDREC 1229 [2]; [17]) | Peptide MIC during treatment with vancomycin (MDRAB 12035 [4]; [17]) | Peptide MIC during treatment with vancomycin (MDRAB 12035 [4]; vancomycin […] (Conc./MIC 1/4)) | Peptide MIC during treatment with antibiotic (A. baumannii [5]; linezolid […] (Conc./MIC 1/2)) | Peptide MIC during treatment with antibiotic (A. baumannii [5]; vancomycin […] (Conc./MIC 1/8)) | Erythromycin MIC during combined treatment with peptide (MDRAB 12035 [6]; [22])
64 µg/mL: Antibiotic MIC, Linezolid (A. baumannii [1]; [9]) | Antibiotic MIC, Linezolid (MDREC 1229 [3]; [21]) | Antibiotic MIC, Linezolid (MDREC 1229 [3]; [22]) | Antibiotic MIC, Vancomycin (MDREC 1229 [3]; [22]) | Linezolid MIC during combined treatment with peptide (MDRAB 12035 [6]; [21]) | Linezolid MIC during combined treatment with peptide (MDRAB 12035 [6]; [22]) | Minimal inhibitory concentration MIC (MDRST 8009)
128 µg/mL: Antibiotic MIC, Linezolid (A. baumannii [1]; [8]) | Antibiotic MIC, Vancomycin (A. baumannii [1]; [8]) | Antibiotic MIC, Linezolid (MDREC 1229 [3]; [20]) | Vancomycin MIC during combined treatment with peptide (MDRAB 12035 [6]; [21])
>128 µg/mL: Antibiotic MIC, Linezolid (A. baumannii [1]; [7]) | Antibiotic MIC, Vancomycin (A. baumannii [1]; [7]) | Minimal inhibitory concentration MIC (S. epidermidis) | Antibiotic MIC, Erythromycin (MDREC 1229 [3]; [19]) | Antibiotic MIC, Linezolid (MDREC 1229 [3]; [19]) | Antibiotic MIC, Vancomycin (MDREC 1229 [3]; [19]) | Antibiotic MIC, Vancomycin (MDREC 1229 [3]; [20]) | Antibiotic MIC, Vancomycin (MDREC 1229 [3]; [21]) | Linezolid MIC during combined treatment with peptide (MDRAB 12035 [6]; [19]) | Vancomycin MIC during combined treatment with peptide (MDRAB 12035 [6]; [19]) | Linezolid MIC during combined treatment with peptide (MDRAB 12035 [6]; [20]) | Vancomycin MIC during combined treatment with peptide (MDRAB 12035 [6]; [20])
1 µg/mL: Peptide MIC during treatment with antibiotic (MDREC 1229 [2]; linezolid […] (Conc./MIC 1/2)) | Peptide MIC during treatment with antibiotic (MDREC 1229 [2]; [18]) | Antibiotic MIC, Erythromycin (MDREC 1229 [3]; [24]) | Peptide MIC during treatment with linezolid (MDRAB 12035 [4]; linezolid […] (Conc./MIC 1/2)) | Peptide MIC during treatment with vancomycin (MDRAB 12035 [4]; [18]) | Erythromycin MIC during combined treatment with peptide (MDRAB 12035 [6]; [23])
16 µg/mL: Antibiotic MIC, Erythromycin (A. baumannii [1]; [9]) | Antibiotic MIC, Vancomycin (A. baumannii [1]; [10]) | Antibiotic MIC, Linezolid (A. baumannii [1]; [11]) | Antibiotic MIC, Vancomycin (A. baumannii [1]; [11]) | Antibiotic MIC, Erythromycin (MDREC 1229 [3]; [21]) | Antibiotic MIC, Linezolid (MDREC 1229 [3]; [24]) | Antibiotic MIC, Vancomycin (MDREC 1229 [3]; [24]) | Erythromycin MIC during combined treatment with peptide (MDRAB 12035 [6]; [21]) | Vancomycin MIC during combined treatment with peptide (MDRAB 12035 [6]; [24])
0 µg/mL: Antibiotic MIC, Erythromycin (A. baumannii [1]; [13]) | Antibiotic MIC, Linezolid (A. baumannii [1]; [13]) | Antibiotic MIC, Vancomycin (A. baumannii [1]; [13]) | Antibiotic MIC, Erythromycin (A. baumannii [1]; [14]) | Antibiotic MIC, Linezolid (A. baumannii [1]; [14]) | Antibiotic MIC, Vancomycin (A. baumannii [1]; [14]) | Peptide MIC during treatment with antibiotic (MDREC 1229 [2]; erythromycin […] (Conc./MIC 1)) | Peptide MIC during treatment with antibiotic (MDREC 1229 [2]; [16]) | Peptide MIC (E. coli; with Erythromycin […] (Conc./MIC 1)) | Peptide MIC (E. coli; with Linezolid […] (Conc./MIC 1)) | Peptide MIC (E. coli; with Vancomycin 1024 μg/ml (Conc./MIC 1)) | Antibiotic MIC, Erythromycin (MDREC 1229 [3]; [25]) | Antibiotic MIC, Linezolid (MDREC 1229 [3]; [25]) | Antibiotic MIC, Vancomycin (MDREC 1229 [3]; [25]) | Antibiotic MIC, Erythromycin (MDREC 1229 [3]; [26]) | Antibiotic MIC, Linezolid (MDREC 1229 [3]; [26]) | Antibiotic MIC, Vancomycin (MDREC 1229 [3]; [26]) | Peptide MIC during treatment with erythromycin (MDRAB 12035 [4]; [30]) | Peptide MIC during treatment with linezolid (MDRAB 12035 [4]; [16]) | Peptide MIC during treatment with antibiotic (A. baumannii [5]; [30]) | Peptide MIC during treatment with antibiotic (A. baumannii [5]; linezolid […] (Conc./MIC 1)) | Peptide MIC during treatment with antibiotic (A. baumannii [5]; [18]) | Erythromycin MIC during combined treatment with peptide (MDRAB 12035 [6]; [25]) | Linezolid MIC during combined treatment with peptide (MDRAB 12035 [6]; [25]) | Vancomycin MIC during combined treatment with peptide (MDRAB 12035 [6]; [25]) | Erythromycin MIC during combined treatment with peptide (MDRAB 12035 [6]; [26]) | Linezolid MIC during combined treatment with peptide (MDRAB 12035 [6]; [26]) | Vancomycin MIC during combined treatment with peptide (MDRAB 12035 [6]; [26])
4 µg/mL: Peptide MIC during treatment with antibiotic (MDREC 1229 [2]; [15]) | Peptide MIC during treatment with antibiotic (MDREC 1229 [2]; vancomycin […] (Conc./MIC 1/4)) | Antibiotic MIC, Erythromycin (MDREC 1229 [3]; [23]) | Peptide MIC during treatment with erythromycin (MDRAB 12035 [4]; [27]) | Peptide MIC during treatment with erythromycin (MDRAB 12035 [4]; [28]) | Peptide MIC during treatment with erythromycin (MDRAB 12035 [4]; [29]) | Peptide MIC during treatment with linezolid (MDRAB 12035 [4]; [15]) | Peptide MIC during treatment with linezolid (MDRAB 12035 [4]; linezolid […] (Conc./MIC 1/4)) | Peptide MIC during treatment with vancomycin (MDRAB 12035 [4]; vancomycin […] (Conc./MIC 1/8)) | Peptide MIC during treatment with antibiotic (A. baumannii [5]; [27]) | Peptide MIC during treatment with antibiotic (A. baumannii [5]; [28]) | Peptide MIC during treatment with antibiotic (A. baumannii [5]; [29]) | Peptide MIC during treatment with antibiotic (A. baumannii [5]; linezolid 64 μg/ml (Conc./MIC 1/4)) | Linezolid MIC during combined treatment with peptide (MDRAB 12035 [6]; [24])
0.5 µg/mL: Antibiotic MIC, Erythromycin (A. baumannii [1]; [11]) | Peptide MIC during treatment with antibiotic (A. baumannii [5]; vancomycin […] (Conc./MIC 1/4))
0.25 µg/mL: Antibiotic MIC, Erythromycin (A. baumannii [1]; [12]) | Peptide MIC during treatment with antibiotic (A. baumannii [5]; [17]) | Erythromycin MIC during combined treatment with peptide (MDRAB 12035 [6]; [24])
32 µg/mL: Minimal inhibitory concentration MIC (MDRAB 12036) | Minimal inhibitory concentration MIC (MDRPA 2003) | Antibiotic MIC, Erythromycin (A. baumannii [1]; [7]) | Antibiotic MIC, Erythromycin (A. baumannii [1]; [8]) | Antibiotic MIC, Vancomycin (A. baumannii [1]; [9]) | Antibiotic MIC, Linezolid (A. baumannii [1]; [10]) | Minimal inhibitory concentration MIC (P. aeruginosa) | Minimal inhibitory concentration MIC (MDREC 1238) | Antibiotic MIC, Erythromycin (MDREC 1229 [3]; [20]) | Antibiotic MIC, Linezolid (MDREC 1229 [3]; [23]) | Antibiotic MIC, Vancomycin (MDREC 1229 [3]; [23]) | Erythromycin MIC during combined treatment with peptide (MDRAB 12035 [6]; [19]) | Erythromycin MIC during combined treatment with peptide (MDRAB 12035 [6]; [20]) | Vancomycin MIC during combined treatment with peptide (MDRAB 12035 [6]; [22]) | Linezolid MIC during combined treatment with peptide (MDRAB 12035 [6]; [23]) | Vancomycin MIC during combined treatment with peptide (MDRAB 12035 [6]; [23])
8 µg/mL: Antibiotic MIC, Vancomycin (A. baumannii [1]; [12]) | Peptide MIC during treatment with antibiotic (MDREC 1229 [2]; vancomycin […] (Conc./MIC 1/8)) | Antibiotic MIC, Erythromycin (MDREC 1229 [3]; [22]) | Peptide MIC during treatment with antibiotic (A. baumannii [5]; linezolid 32 μg/ml (Conc./MIC 1/8))
